{"source": "patent US8609419B2", "about": "“Method for inserting a nucleic acid of interest into a prokaryotic or eukaryotic cell by homologous recombination” (Centre National de la Recherche Scientifique, priority 2002, dated 2013)", "system": "Escherichia coli cell genome", "test": "Targeted insertion of lacZ::kan by homologous recombination from N-AcO-AAF-treated pCUL-lacZ::kan plasmid (white/total colonies)", "type": "cell-based", "conditions": "for Recombination frequency: white colonies/total colonies / Total number of colonies/number of recombined colonies: E. coli", "description": "Reaction mixture • Plasmid DNA: Final concentration of 0.5 μg/μl in 2×10^−3 M citrate buffer, pH 7 • N-AcO-AAF: Final concentration of 400 μg/ml in ethanol.\n60 μg DNA are added in 114 μl of 2×10^−3 M citrate buffer, pH7, added with 3 μl of ethanol at 100%.\nThe solution is preheated at 37° C.; then 3 μl of N-AcO-AAF (400 μg/ml) are added, marked with tritium (^3H).\nReaction time: 4, 8, 20 minutes.\n40 μl are taken at the various selected times. The reaction is stopped by a DNA precipitation step with 3 volumes of ethanol/sodium acetate 0.16M followed by three other precipitation steps under the same conditions.\nThe percentage of modified bases is determined measuring the number of plasmid mols through UV spectrophotometry and the number of bound AAF mols, through βradioactivity counting.\nThe result is expressed in percentage of modified bases. The reaction time is adapted as a function of the size of the plasmid and the desired percentage of modified bases.\nE. coli cells are transformed following the conventional electroporation method by using the conditions recommended by the device manufacturers to this end (Gene Pulser from Biorad for example).\nIn the example, transformant clones are selected on a LB-agar medium containing kanamycin (20 μg/ml) and the lack of β-galactosidase activity (being expressed by white colonies instead of blue ones), i.e. a phenotype typical of a non reciprocal recombination event is visualized by means of the presence of X-gal (5-bromo-4-chloro-3-indolyl-β-D-galactopyranoside) and IPTG (isopropyl-β-D-thiogalactopyranoside) in the dishes.", "data": [{"compound": "CC(=O)ON(C(C)=O)c1ccc2c(c1)Cc1ccccc1-2", "note": "[N-AcO-AAF, N-acetoxy-2-acetylaminofluorene]", "values": [{"measurement": "Recombination frequency: white colonies/total colonies", "setting": "10 AAF injuries per plasmid", "value": 0.056}, {"measurement": "Total number of colonies/number of recombined colonies", "setting": "10 AAF injuries per plasmid", "value": "17819/10"}, {"measurement": "Recombination frequency: white colonies/total colonies", "setting": "20 AAF injuries per plasmid", "value": 0.17}, {"measurement": "Total number of colonies/number of recombined colonies", "setting": "20 AAF injuries per plasmid", "value": "9692/17"}, {"measurement": "Recombination frequency: white colonies/total colonies", "setting": "33 AAF injuries per plasmid", "value": 0.32}, {"measurement": "Total number of colonies/number of recombined colonies", "setting": "33 AAF injuries per plasmid", "value": 2301975}, {"measurement": "Recombination frequency: white colonies/total colonies", "setting": "43 AAF injuries per plasmid", "value": 1.41}, {"measurement": "Total number of colonies/number of recombined colonies", "setting": "43 AAF injuries per plasmid", "value": "16554/237"}, {"measurement": "targeted recombinant molecules", "setting": "67 AAF injuries on the plasmid, wild strain for recombination systems", "value": "more than 6%"}, {"measurement": "Recombination frequency: white colonies/total colonies", "setting": "67 AAF injuries per plasmid", "value": 6.07}, {"measurement": "Total number of colonies/number of recombined colonies", "setting": "67 AAF injuries per plasmid", "value": "1934/125"}, {"measurement": "increase in the recombination frequency", "setting": "67 AAF injuries versus spontaneous events", "value": "more than 1,700 fold"}, {"measurement": "frequency of homologous recombination events", "setting": "67 molecules of N-AcO-AAF per molecule of the DNA vector", "value": "more than 600×10^−4"}, {"measurement": "frequency of non reciprocal homologous recombination events from the DNA vector to the chromosome", "setting": "N-AcO-AAF bound onto the polynucleotide", "value": "higher than 0.05 homologous recombination events per transfected cell"}, {"measurement": "frequency of homologous recombination events", "setting": "ten molecules of N-AcO-AAF per molecule of the DNA vector", "value": "5.61×10^−4"}]}]}
